Results as given in PubChem BioAssay (NCI).
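Method: 48-hour compound exposure of cells in 96-well plates, five concentrations, linear interpolation of endpoints. TGI: concentration producing complete growth inhibition.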

How the values were obtained:
Test in all cases: NCI-60 cell line screen, 48 h
[1] = system: A549 NSCLC
[2] = system: CAKI-1 renal
[3] = system: EKVX NSCLC
[4] = system: HT29 colon
[5] = system: NCI-H23 lung
[6] = system: RXF 393 renal
[7] = system: SF-295 CNS
[8] = system: SF-539 CNS
[9] = system: SN12C renal
[10] = system: UACC-257 melanoma

O=C(Nc1ccccc1C(=O)NCCCO)/C(=C/c1ccccc1O)NC(=O)c1ccccc1
TGI [1]: > 100 µM
TGI [2]: > 100 µM
TGI [3]: > 100 µM
TGI [4]: > 100 µM
TGI [5]: > 94.5 µM
TGI [6]: > 86.8 µM
TGI [7]: > 75.8 µM
TGI [8]: > 63.2 µM
TGI [9]: > 100 µM
TGI [10]: > 100 µM

O=C(CC1=NCCN1)c1ccccc1
TGI [1]: > 285 µM
TGI [2]: > 750 µM
TGI [3]: > 750 µM
TGI [4]: > 750 µM
TGI [5]: > 750 µM
TGI [6]: > 750 µM
TGI [7]: > 750 µM
TGI [8]: > 750 µM
TGI [9]: > 750 µM
TGI [10]: > 750 µM

NC(=O)c1cc2ccccc2o/c1=N/O
TGI [1]: > 100 µM
TGI [2]: 70.3 µM
TGI [3]: > 100 µM
TGI [4]: > 100 µM
TGI [5]: > 100 µM
TGI [6]: > 100 µM
TGI [7]: > 100 µM
TGI [8]: > 100 µM
TGI [9]: > 100 µM
TGI [10]: > 100 µM

CCOn1c(C2(CC3CCN(C(=O)c4ccccc4)CC3)OCCO2)cc2ccccc21
TGI [1]: 32.4 µM
TGI [2]: 30.2 µM
TGI [3]: 40.1 µM
TGI [4]: 34.2 µM
TGI [5]: 40.6 µM
TGI [6]: 31.2 µM
TGI [7]: 30.5 µM
TGI [8]: 68.1 µM
TGI [9]: 30.9 µM
TGI [10]: 23 µM

Clc1ccc(OCc2nnc(CCCCCCCCc3nnc(COc4ccc(Cl)cc4)n3Nc3ccccc3)n2Nc2ccccc2)cc1
TGI [1]: > 83.3 µM
TGI [2]: 27.2 µM
TGI [3]: > 87.9 µM
TGI [4]: 34.3 µM
TGI [5]: > 100 µM
TGI [6]: 70.8 µM
TGI [7]: > 100 µM
TGI [8]: 40.1 µM
TGI [9]: 99 µM
TGI [10]: > 100 µM

COc1cc(CN2CCCCC2)cc2cc(C(=O)O)c(=O)oc12
TGI [1]: > 100 µM
TGI [2]: > 100 µM
TGI [3]: > 100 µM
TGI [4]: > 100 µM
TGI [5]: > 100 µM
TGI [6]: > 100 µM
TGI [7]: > 100 µM
TGI [8]: > 100 µM
TGI [9]: > 100 µM
TGI [10]: > 100 µM

CCOC(=O)C(CC#Cc1ccc(C#CCC(NC(C)=O)C(=O)OCC)cc1)NC(C)=O (stereo not given)
TGI [1]: > 100 µM
TGI [2]: > 100 µM
TGI [3]: > 100 µM
TGI [4]: > 100 µM
TGI [5]: > 100 µM
TGI [6]: > 100 µM
TGI [7]: > 100 µM
TGI [8]: > 100 µM
TGI [9]: > 100 µM
TGI [10]: > 100 µM

COc1c(Br)cc(CC(N)=O)c(O)c1Br
TGI [1]: > 100 µM
TGI [2]: > 100 µM
TGI [3]: > 100 µM
TGI [4]: > 100 µM
TGI [5]: > 100 µM
TGI [6]: > 100 µM
TGI [7]: > 100 µM
TGI [8]: > 100 µM
TGI [9]: > 100 µM
TGI [10]: > 100 µM

Brc1ccc2c(-c3csc(-c4c[nH]c5ccc(Br)cc45)n3)c[nH]c2c1
TGI [1]: 19 µM
TGI [2]: 9.81 µM
TGI [3]: 7.15 µM
TGI [4]: 3.35 µM
TGI [5]: 14.2 µM
TGI [6]: 9.55 µM
TGI [7]: 10.9 µM
TGI [8]: 15.1 µM
TGI [9]: 18.9 µM
TGI [10]: 23.1 µM

COc1cc2c(/C=C3/C(=O)Nc4ccccc43)c(Cl)[nH]c2cc1C
TGI [1]: 22.7 µM
TGI [2]: 23.6 µM
TGI [3]: 25.1 µM
TGI [4]: 1.05 µM
TGI [5]: 0.879 µM
TGI [6]: 24 µM
TGI [7]: 1.19 µM
TGI [8]: 0.225 µM
TGI [9]: 13.1 µM
TGI [10]: > 45.8 µM

C=C1CC(C)(c2ccc(Nc3nc4ccccc4c4occc34)cc2)OC1=O (stereo not given)
TGI [1]: 23.7 µM
TGI [2]: 40.3 µM
TGI [3]: 24.5 µM
TGI [4]: 12.6 µM
TGI [5]: 4.55 µM
TGI [6]: 4.92 µM
TGI [7]: 27.4 µM
TGI [8]: 4.5 µM
TGI [9]: 4.91 µM
TGI [10]: 0.164 µM

CC(=O)OC/C=C(/C=C/CNC1CCCCC1)OC(C)=O
TGI [1]: > 100 µM
TGI [2]: 26.7 µM
TGI [3]: 30.1 µM
TGI [4]: 35.5 µM
TGI [5]: 29.9 µM
TGI [6]: 32.5 µM
TGI [7]: 33.2 µM
TGI [8]: 24.2 µM
TGI [9]: 32.1 µM
TGI [10]: 29.4 µM

COCc1nc2c(OC)cc(-c3nc4ccc(N5CCN(C)CC5)cc4[nH]3)c(OC)c2[nH]1
TGI [1]: > 100 µM
TGI [2]: > 100 µM
TGI [3]: > 100 µM
TGI [4]: > 100 µM
TGI [5]: > 100 µM
TGI [6]: 51.9 µM
TGI [7]: 47.2 µM
TGI [8]: 44.6 µM
TGI [9]: > 100 µM
TGI [10]: 34.6 µM

Brc1ccc2c(-c3csc(-c4c[nH]c5cc(Br)ccc45)n3)c[nH]c2c1
TGI [1]: > 50.7 µM
TGI [2]: > 100 µM
TGI [3]: > 100 µM
TGI [4]: 29.2 µM
TGI [5]: 53.2 µM
TGI [6]: 77.1 µM
TGI [7]: 45.5 µM
TGI [8]: 63.2 µM
TGI [9]: > 100 µM
TGI [10]: > 100 µM

FC(F)(F)c1ccc2nc3n(c2c1)C(c1c(Cl)cccc1Cl)SC3 (stereo not given)
TGI [1]: 29.5 µM
TGI [2]: 28 µM
TGI [3]: 28.6 µM
TGI [4]: 30.4 µM
TGI [5]: 37 µM
TGI [6]: 30.9 µM
TGI [7]: 30.3 µM
TGI [8]: 33.1 µM
TGI [9]: 32.7 µM
TGI [10]: 29.3 µM

NC(=O)C(=CNC(=S)c1ccncc1)C(N)=O
TGI [1]: > 100 µM
TGI [2]: > 100 µM
TGI [3]: > 100 µM
TGI [4]: > 100 µM
TGI [5]: > 100 µM
TGI [6]: > 100 µM
TGI [7]: > 100 µM
TGI [8]: > 100 µM
TGI [9]: > 100 µM
TGI [10]: > 100 µM

NC1CNC(=O)c2c(Cl)sc(Cl)c21 (stereo not given)
TGI [1]: > 100 µM
TGI [2]: > 100 µM
TGI [3]: > 100 µM
TGI [4]: > 100 µM
TGI [5]: > 100 µM
TGI [6]: > 100 µM
TGI [7]: > 100 µM
TGI [8]: > 100 µM
TGI [9]: > 100 µM
TGI [10]: > 100 µM

Cc1nc(C)c(Cc2ccccc2)o1
TGI [1]: > 100 µM
TGI [2]: > 100 µM
TGI [3]: > 100 µM
TGI [4]: > 100 µM
TGI [5]: > 100 µM
TGI [6]: > 100 µM
TGI [7]: > 100 µM
TGI [8]: > 100 µM
TGI [9]: > 100 µM
TGI [10]: > 100 µM
